Measurements from patent US20240391928A1, “COMPOSITIONS FOR THE TREATMENT OF FOOD AND CHEMICAL ADDICTION AND METHODS OF MAKING AND USING SAME” (Duke University, priority 2021, published 2024).

Legend:
Type in all cases: cell-based
hGHSR1a^WT = hGHSR1a^WT (Homo sapiens, UniProt Q92847); assay: Gαq-dependent intracellular Ca2+ mobilization (iCa2+, miAeq); set-up: HEK293/T (transient); HEK293S Gαq knockout (transient, NanoBiT Gαq); settings: for EC50 / Calcium signaling ECmax (%): secondary assay of HTS hits; for EC50: read-out: Calcium signaling EC50; for Calcium signaling ECmax (%): normalized to L585; for inhibition of iCa2+ evoked by N8279, ghrelin or L585: 30 minute antagonist pretreatment
Experimental: Gαq-Dependent Intracellular Ca^2+ Mobilization. […] Cells were split into and seeded into 10 cm dishes without antibiotic selection and grown to confluency overnight. The next morning, cells were serum starved in 10 mL of clear opti-MEM (supplemented with L-glutamine and HEPES; Gibco, Waltham, MA) for 3-4 hours in a 37° C. incubator with 5% CO2. Then, 25 μL of coelenterazine H (NanoLight Technology, Pinetop, AZ) was added to each 10 mL dish and incubated for another 1-2 hours. For antagonist assays, test compounds were either added directly to the media in 10 cm dishes, or cells were collected by gentle washing/trituration and plated onto white, clear-bottomed 96-well plates for 30 minutes—1 hour. Once the coelenterazine H (or antagonist) incubation was complete, cells were harvested from the 10 cm dish by gentle washing/trituration and collected in a 15 mL conical tube. Cell suspensions were then immediately subjected to assay by injecting cells onto a white, clear-bottomed 96-well plate containing 2× test compounds. Luminescence was read without delay and for 10 seconds per well. To control for cell number variability, cells were lysed in 2× lysis buffer (100 mM CaCl2+0.2% Triton-X) immediately following the assay. The max ligand-induced response (Ca^2+ mobilization: net-miAeq) over 10 seconds was normalized by dividing the ligand-induced luminescence counts (L-miAeq) by the ligand-induced luminescence counts (L-MiAeq) plus the luminescence measured upon cell lysis (Lysis-miAeq). Relative, lysis-normalized data were then normalized to the appropriate control/reference condition.
(§1) For experiments with WT and Gt KO HEK293/S cells, […] of hGHSR1a^WT, 10 μg of miAEQ, and 2.5 μg of pcDNA3.1 was transiently transfected into 10 cm dishes and incubated overnight. […] Twenty-four hours later, experiments proceeded in accordance with the procedures described above. To control for any possible kinetic differences in genetically modified cell lines or GHSR1a variants, the average ligand-induced response over 10 seconds was calculated, then normalized by dividing the L-miAeq by the L-miAeq plus the Lysis-miAeq and normalized to the appropriate control/reference condition.

[1] = test system: human hGHSR1a-vasopressin receptor 2 tail chimera; assay: β-arr2^GFP translocation, compound screening (U2OS); settings: secondary assay of HTS hits; for Beta-arrestin translocation ECmax (%): normalized to L585; for EC50: read-out: Beta-arrestin translocation EC50
[2] = target: T1, hGHSR1a^WT in Gαq/11 KO HEK293/S cells (Homo sapiens, UniProt Q92847); assay: iCa2+ in Gαq/11 KO HEK293/S cells; settings: 10 μM ligand
T1 construct: expressed in transfected cells; SRF-RE reporter); HEK293/S Gαq/11 KO and parental WT (iCa2+)
Experimental: as §1

Chain of hGHSR1a^WT (Q92847 whole entry): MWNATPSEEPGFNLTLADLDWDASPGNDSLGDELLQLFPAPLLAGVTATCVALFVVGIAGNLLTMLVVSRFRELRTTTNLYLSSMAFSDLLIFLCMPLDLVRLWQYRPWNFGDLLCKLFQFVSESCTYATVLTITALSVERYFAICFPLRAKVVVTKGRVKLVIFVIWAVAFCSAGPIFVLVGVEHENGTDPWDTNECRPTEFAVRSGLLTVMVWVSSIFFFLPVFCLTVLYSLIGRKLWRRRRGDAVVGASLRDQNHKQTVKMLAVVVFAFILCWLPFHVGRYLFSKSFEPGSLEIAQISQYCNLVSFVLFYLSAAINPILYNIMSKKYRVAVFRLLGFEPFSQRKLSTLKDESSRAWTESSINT
T1 sequence (Q92847 whole entry): as above

EC50 (hGHSR1a^WT)	Beta-arrestin translocation ECmax (%) [1]	EC50 [1]	Calcium signaling ECmax (%) (hGHSR1a^WT)	agonist-induced iCa2+ in Gαq/11 KO cells [2]	inhibition of iCa2+ evoked by N8279, ghrelin or L585 (hGHSR1a^WT)	activity of re-synthesized molecule in words (hGHSR1a^WT; re-synthesized material)	potency and efficacy relative to L585 in words (hGHSR1a^WT; screening sample)	Compound
~1520 µM	99%	1.74 µM	–	–	–	–	–	CCCOc1cccc(C2c3c(oc4ccc(F)cc4c3=O)C(=O)N2CCCN2CCOCC2)c1 (stereo not drawn) [NCGC00101919]
~18000 µM	153%	1.55 µM	–	–	–	–	–	Cc1ccc2oc3c(c(=O)c2c1)C(c1cccc(O)c1)N(CCCN1CCOCC1)C3=O (stereo not drawn) [NCGC00101913]
~62000 µM	–	–	–	–	–	–	–	O=C1c2oc3ccc(F)cc3c(=O)c2C(c2cccc([N+](=O)[O-])c2)N1CCCN1CCOCC1 (stereo not drawn) [NCGC00119778]
0.00681 µM	–	~4690 µM	48%	–	–	–	–	CC(C)CCOc1cccc(C2c3c(oc4ccccc4c3=O)C(=O)N2CCCN2CCOCC2)c1 (stereo not drawn) [MLS000115603]
2.38 µM	0%	–	126%	–	–	–	–	CCCOc1ccc(C2c3c(oc4cc(C)c(C)cc4c3=O)C(=O)N2CCCN(C)C)cc1OCC (stereo not drawn) [MLS000115621]
7.71 µM	10%	0.426 µM	61%	–	–	–	–	COc1ccc(C2c3c(oc4ccc(F)cc4c3=O)C(=O)N2Cc2ccc3c(c2)OCO3)cc1 (stereo not drawn) [NCGC00101634]
~11200 µM	–	–	–	–	–	–	–	Cc1ccc2oc3c(c(=O)c2c1)C(c1ccc(O)cc1)N(Cc1ccc2c(c1)OCO2)C3=O (stereo not drawn) [NCGC00101948]
3.35 µM	39%	0.558 µM	40%	–	–	–	–	CSc1ccc(C2c3c(oc4ccccc4c3=O)C(=O)N2CCCN2CCOCC2)cc1 (stereo not drawn) [NCGC00101907]
5.62 µM	163%	3.05 µM	75%	–	–	–	–	CC(C)c1ccc(C2c3c(oc4ccc(Cl)cc4c3=O)C(=O)N2CCCN2CCOCC2)cc1 (stereo not drawn) [NCGC00119774]
4.9 µM	20%	0.0116 µM	121%	–	–	–	–	Cc1ccc2oc3c(c(=O)c2c1)C(c1ccccc1F)N(CCCN(C)C)C3=O (stereo not drawn) [NCGC00101939]
~3020 µM	64%	0.254 µM	–	–	–	–	–	C=CCOc1ccc(C2c3c(oc4ccc(C)cc4c3=O)C(=O)N2CCCN2CCOCC2)cc1 (stereo not drawn) [NCGC00101909]
0.0176 µM	–	–	56%	–	–	–	–	COc1cccc(C2c3c(oc4ccccc4c3=O)C(=O)N2CCCN2CCOCC2)c1 (stereo not drawn) [MLS002585710]
~19200 µM	368%	13.6 µM	–	–	–	–	–	COc1cc(C2c3c(oc4cc(C)c(C)cc4c3=O)C(=O)N2CCCN2CCOCC2)ccc1O (stereo not drawn) [NCGC00101915]
~296 µM	11%	0.0716 µM	–	–	–	–	–	COc1cccc(C2c3c(oc4ccc(C)cc4c3=O)C(=O)N2CCCN2CCOCC2)c1OC (stereo not drawn) [NCGC00136166]
1.29 µM	142%	2.03 µM	97%	–	–	–	–	CCOc1ccc(C2c3c(oc4ccc(C)cc4c3=O)C(=O)N2CCCN(C)C)cc1 (stereo not drawn) [NCGC00141058]
32.4 µM	49%	2.4 µM	115%	–	–	–	–	CCCOc1ccc(C2c3c(oc4ccccc4c3=O)C(=O)N2c2ccc(C)cn2)cc1OCC (stereo not drawn) [NCGC00101673]
0.714 µM	196%	5.33 µM	105%	–	–	–	–	COc1ccc(C2c3c(oc4ccc(C)cc4c3=O)C(=O)N2CCCN2CCOCC2)cc1OC (stereo not drawn) [NCGC00141954]
0.00804 µM	38%	0.00298 µM	51%	–	–	–	–	CCOc1ccc(C2c3c(oc4ccccc4c3=O)C(=O)N2CCCN2CCOCC2)cc1OCC (stereo not drawn) [MLS000115604]

EC50 (hGHSR1a^WT)	Beta-arrestin translocation ECmax (%) [1]	EC50 [1]	Calcium signaling ECmax (%) (hGHSR1a^WT)	agonist-induced iCa2+ in Gαq/11 KO cells [2]	inhibition of iCa2+ evoked by N8279, ghrelin or L585 (hGHSR1a^WT)	activity of re-synthesized molecule in words (hGHSR1a^WT; re-synthesized material)	potency and efficacy relative to L585 in words (hGHSR1a^WT; screening sample)	Compound
–	24%	0.0312 µM	–	–	–	–	–	CCCOc1ccc(C2c3c(oc4cc(C)c(C)cc4c3=O)C(=O)N2CCCN2CCOCC2)cc1 (stereo not drawn) [MLS000115606]
0.0146 µM	100%	0.024 µM	100%	abolished	–	–	–	C[C@@H](O)CNC(C)(C)CC(=O)N[C@@H]1CCc2ccccc2N(Cc2ccc(-c3ccccc3-c3nn[nH]n3)cc2)C1=O [Example L626.585, reference compound]
–	–	–	–	–	competitively inhibited	–	–	Cc1nc2ccc(Oc3ccc(F)cc3)cc2c(=O)n1C[C@H]1CCCN(C(C)C)C1 [YIL781, reference compound]
12 µM	26%	0.0499 µM	125%	–	–	–	–	Cc1ccc2oc3c(c(=O)c2c1)C(c1ccc([N+](=O)[O-])cc1)N(CCCN1CCOCC1)C3=O (stereo not drawn) [NCGC00119776]
2.78 µM	49%	0.855 µM	112%	–	–	–	–	Cc1ccc2oc3c(c(=O)c2c1)C(c1ccc(O)cc1)N(CCCN(C)C)C3=O (stereo not drawn) [NCGC00101937]
0.00226 µM	–	–	44%	–	–	–	–	Cc1ccc2oc3c(c(=O)c2c1)C(c1ccccc1F)N(CCCN1CCOCC1)C3=O (stereo not drawn) [NCGC00101911]
0.332 µM	107%	2.31 µM	105%	–	–	could not be confirmed	sub-μM potency and full efficacy	CCOc1ccc(C2c3c(oc4ccc(C)cc4c3=O)C(=O)N2CCCN(C)C)cc1OC (stereo not drawn) [NCGC00141956]
–	–	–	–	–	competitively inhibited	–	–	JMV2959 [reference compound]
1.2 µM	7%	2 µM	63%	–	–	–	–	CCOc1cccc(C2c3c(oc4ccc(F)cc4c3=O)C(=O)N2CCOC)c1 (stereo not drawn) [NCGC00101945]
0.938 µM	19%	0.00219 µM	68%	–	–	–	–	CCOc1ccc(C2c3c(oc4ccc(C)cc4c3=O)C(=O)N2CCCN2CCOCC2)cc1 (stereo not drawn) [NCGC00141056]
~18500 µM	9%	0.0165 µM	–	–	–	–	–	CCOc1cc(C2c3c(oc4ccccc4c3=O)C(=O)N2Cc2ccc(OC)cc2)ccc1O (stereo not drawn) [NCGC00101920]
–	12%	0.528 µM	57%	–	–	–	–	O=C1c2oc3ccccc3c(=O)c2C(c2ccccc2F)N1Cc1ccc2c(c1)OCO2 (stereo not drawn) [NCGC00101942]
13.1 µM	24%	2.33 µM	129%	–	–	–	–	COc1ccc(OC)c(C2c3c(oc4ccc(C)cc4c3=O)C(=O)N2CCCN(C)C)c1 (stereo not drawn) [NCGC00136184]
~26900 µM	83%	0.095 µM	–	–	–	–	–	CCCCOc1ccc(C2c3c(oc4ccc(C)cc4c3=O)C(=O)N2CCCN(C)C)cc1OCC (stereo not drawn) [NCGC00101941]
~3010 µM	–	–	–	–	–	–	–	Cc1cc(C)c2c(=O)c3c(oc2c1)C(=O)N(Cc1ccco1)C3c1ccc(F)cc1 (stereo not drawn) [NCGC00116418]
0.00032 µM	204%	6.3 µM	8%	–	–	–	–	Cc1ccc2oc3c(c(=O)c2c1)C(c1cccc(Cl)c1)N(CCCN1CCOCC1)C3=O (stereo not drawn) [MLS000103531]
20.4 µM	–	–	71%	–	–	–	–	COc1cccc(C2c3c(oc4ccccc4c3=O)C(=O)N2CCCN2CCOCC2)c1 (stereo not drawn) [MLS000115599]
0.0043 µM	20%	0.00424 µM	39%	–	–	–	–	CCCOc1cccc(C2c3c(oc4cc(C)c(C)cc4c3=O)C(=O)N2CCCN2CCOCC2)c1 (stereo not drawn) [NCGC00101917]

Compound	EC50 (hGHSR1a^WT)	Beta-arrestin translocation ECmax (%) [1]	EC50 [1]	Calcium signaling ECmax (%) (hGHSR1a^WT)	agonist-induced iCa2+ in Gαq/11 KO cells [2]	inhibition of iCa2+ evoked by N8279, ghrelin or L585 (hGHSR1a^WT)	activity of re-synthesized molecule in words (hGHSR1a^WT; re-synthesized material)	potency and efficacy relative to L585 in words (hGHSR1a^WT; screening sample)
CCCCOCCCn1c(N)c(C(=O)OC(C)COC)c2nc3ccccc3nc21 (stereo not drawn) [MLS000036469]	0.00306 µM	–	147 µM	50%	–	–	–	–
